Test results taken from PMC9576617, “A new LKB1 activator, piericidin analogue S14, retards renal fibrosis through promoting autophagy and mitochondrial homeostasis in renal tubular epithelial cells” (Theranostics, 2022).

Molecular target: T1, LKB1 (Liver kinase B1, STK11) (Homo sapiens, UniProt Q15831)
T1 construct: Recombinant Human LKB1 (CSB-EP624036HU)
T1 sequence (Q15831 1-430): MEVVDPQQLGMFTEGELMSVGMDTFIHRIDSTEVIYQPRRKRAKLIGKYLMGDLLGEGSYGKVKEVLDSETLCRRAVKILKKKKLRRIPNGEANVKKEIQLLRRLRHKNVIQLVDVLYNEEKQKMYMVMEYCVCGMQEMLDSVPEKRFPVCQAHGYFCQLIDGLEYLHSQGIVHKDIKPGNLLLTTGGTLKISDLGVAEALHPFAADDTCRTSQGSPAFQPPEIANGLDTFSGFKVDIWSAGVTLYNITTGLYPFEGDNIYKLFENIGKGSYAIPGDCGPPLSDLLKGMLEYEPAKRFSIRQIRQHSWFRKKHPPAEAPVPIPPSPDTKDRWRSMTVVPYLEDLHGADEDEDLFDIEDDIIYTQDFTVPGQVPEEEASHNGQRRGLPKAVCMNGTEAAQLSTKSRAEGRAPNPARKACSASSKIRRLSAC
Experiment: SPR imaging (PlexArray HT A100), LKB1 immobilized on a 3D Dextran chip, […] fit
Type: binding

SMILES: COc1nc(C/C=C(\C)C/C=C/C(C)=C/[C@@H](C)[C@@H](O[C@@H]2O[C@H](CO)[C@@H](O)[C@H](O)[C@H]2O)/C(C)=C/CO)c(C)c(O)c1OC [PA-S14, piericidin analogue S14]
- Kd: 120 nM
